From ChEMBL document CHEMBL3885881, “DrugMatrix”

Species: Rattus norvegicus
Test: DrugMatrix - Regimen: Daily Repeat
Type: toxicity, organism-based, Sprague-Dawley
Set-up: regimen Daily Repeat, gender Male, age 6-8 weeks
Details: in vivo, po, route oral GAVAGE, vehicle 100 % WATER; for ABSOLUTE BASOPHIL / ABSOLUTE EOSINOPHIL / ABSOLUTE LYMPHOCYTE / ABSOLUTE MONOCYTE / ABSOLUTE SEGMENTED NEUTROPHIL / BASOPHIL / EOSINOPHIL / ERYTHROCYTE COUNT / HEMATOCRIT / HEMOGLOBIN / LEUKOCYTE COUNT / LYMPHOCYTE / MEAN CORPUSCULAR HEMOGLOBIN / MEAN CORPUSCULAR HEMOGLOBIN CONCENTRATION / MEAN CORPUSCULAR VOLUME / MONOCYTE / NEUTROPHIL / NUCLEATED RED BLOOD CELLS / PLATELET COUNT: tissue Blood; for ALANINE AMINOTRANSFERASE / ALBUMIN / ALKALINE PHOSPHATASE / ASPARTATE AMINOTRANSFERASE / BLOOD UREA NITROGEN / CARBON DIOXIDE / CHLORIDE / CHOLESTEROL / CREATINE PHOSPHOKINASE / CREATININE / GLUCOSE / LACTATE DEHYDROGENASE / LIPASE / PHOSPHORUS / POTASSIUM / SODIUM / TOTAL BILIRUBIN / TOTAL PROTEIN / URIC ACID: tissue Plasma
[1] = 0 mg/kg, 72 h, dose level Control, time 3 day
[2] = 0 mg/kg, 120 h, dose level Control, time 5 day
[3] = 160 mg/kg, 72 h, dose level Low, time 3 day

## N[C@@H](Cc1ccc(O)c(O)c1)C(=O)O [LEVODOPA]
[1]
  ABSOLUTE BASOPHIL: 0 CELLS/uL
  ABSOLUTE EOSINOPHIL: 86.33 CELLS/uL
  ABSOLUTE LYMPHOCYTE: 12090.17 CELLS/uL
  ABSOLUTE MONOCYTE: 166.67 CELLS/uL
  ABSOLUTE SEGMENTED NEUTROPHIL: 1090.17 CELLS/uL
  BASOPHIL: 0%
  EOSINOPHIL: 0.67%
  ERYTHROCYTE COUNT: 5.57 x10E6/uL
  HEMATOCRIT: 35.33%
  HEMOGLOBIN: 13.83 G/DL
  LEUKOCYTE COUNT: 13.43 x10E3/uL
  LYMPHOCYTE: 89.83%
  MEAN CORPUSCULAR HEMOGLOBIN: 24.88 pg
  MEAN CORPUSCULAR HEMOGLOBIN CONCENTRATION: 39.15 G/DL
  MEAN CORPUSCULAR VOLUME: 63.52 fL
  MONOCYTE: 1.17%
  NEUTROPHIL: 8.33%
  NUCLEATED RED BLOOD CELLS: 0 /100WBC
  PLATELET COUNT: 1181.33 x10E3/uL
  ALANINE AMINOTRANSFERASE: 48.33 u/L
  ALBUMIN: 4.1 G/DL
  ALKALINE PHOSPHATASE: 395 u/L
  ASPARTATE AMINOTRANSFERASE: 81.83 u/L
  BLOOD UREA NITROGEN: 15.83 mg/dL
  CARBON DIOXIDE: 24.17 mmol/L
  CHLORIDE: 103.83 MEQ/L
  CHOLESTEROL: 63.67 mg/dL
  CREATINE PHOSPHOKINASE: 372.83 u/L
  CREATININE: 0.18 mg/dL
  GLUCOSE: 173.83 mg/dL
  LACTATE DEHYDROGENASE: 188.33 u/L
  LIPASE: 9.5 u/L
  PHOSPHORUS: 11.95 mg/dL
  POTASSIUM: 5.99 MEQ/L
  SODIUM: 144.43 MEQ/L
  TOTAL BILIRUBIN: 0.15 mg/dL
  TOTAL PROTEIN: 5.95 G/DL
  URIC ACID: 1.82 mg/dL
[2]
  ABSOLUTE BASOPHIL: 0 CELLS/uL
  ABSOLUTE EOSINOPHIL: 26.67 CELLS/uL
  ABSOLUTE LYMPHOCYTE: 7583.83 CELLS/uL
  ABSOLUTE MONOCYTE: 131.33 CELLS/uL
  ABSOLUTE SEGMENTED NEUTROPHIL: 674.83 CELLS/uL
  BASOPHIL: 0%
  EOSINOPHIL: 0.33%
  ERYTHROCYTE COUNT: 5.78 x10E6/uL
  HEMATOCRIT: 36.48%
  HEMOGLOBIN: 14.03 G/DL
  LEUKOCYTE COUNT: 8.42 x10E3/uL
  LYMPHOCYTE: 89.83%
  MEAN CORPUSCULAR HEMOGLOBIN: 24.3 pg
  MEAN CORPUSCULAR HEMOGLOBIN CONCENTRATION: 38.52 G/DL
  MEAN CORPUSCULAR VOLUME: 63.15 fL
  MONOCYTE: 1.67%
  NEUTROPHIL: 8.17%
  NUCLEATED RED BLOOD CELLS: 0 /100WBC
  PLATELET COUNT: 1186.67 x10E3/uL
  ALANINE AMINOTRANSFERASE: 50.17 u/L
  ALBUMIN: 4.07 G/DL
  ALKALINE PHOSPHATASE: 367.5 u/L
  ASPARTATE AMINOTRANSFERASE: 81.67 u/L
  BLOOD UREA NITROGEN: 16.17 mg/dL
  CARBON DIOXIDE: 32.33 mmol/L
  CHLORIDE: 101.5 MEQ/L
  CHOLESTEROL: 65.33 mg/dL
  CREATINE PHOSPHOKINASE: 255.33 u/L
  CREATININE: 0.17 mg/dL
  GLUCOSE: 139.33 mg/dL
  LACTATE DEHYDROGENASE: 95 u/L
  LIPASE: 10.5 u/L
  PHOSPHORUS: 10.38 mg/dL
  POTASSIUM: 6.11 MEQ/L
  SODIUM: 145.55 MEQ/L
  TOTAL BILIRUBIN: 0.17 mg/dL
  TOTAL PROTEIN: 5.98 G/DL
  URIC ACID: 0.93 mg/dL
[3]
  ABSOLUTE BASOPHIL: 0 CELLS/uL
  ABSOLUTE EOSINOPHIL: 48 CELLS/uL
  ABSOLUTE LYMPHOCYTE: 13173.67 CELLS/uL
  ABSOLUTE MONOCYTE: 48 CELLS/uL
  ABSOLUTE SEGMENTED NEUTROPHIL: 2130.33 CELLS/uL
  BASOPHIL: 0%
  EOSINOPHIL: 0.33%
  ERYTHROCYTE COUNT: 5.35 x10E6/uL
  HEMATOCRIT: 34.57%
  HEMOGLOBIN: 13.5 G/DL
  LEUKOCYTE COUNT: 15.4 x10E3/uL
  LYMPHOCYTE: 85.67%
  MEAN CORPUSCULAR HEMOGLOBIN: 25.23 pg
  MEAN CORPUSCULAR HEMOGLOBIN CONCENTRATION: 39.07 G/DL
  MEAN CORPUSCULAR VOLUME: 64.63 fL
  MONOCYTE: 0.33%
  NEUTROPHIL: 13.67%
  NUCLEATED RED BLOOD CELLS: 0 /100WBC
  PLATELET COUNT: 1267 x10E3/uL
  ALANINE AMINOTRANSFERASE: 43.67 u/L
  ALBUMIN: 4 G/DL
  ALKALINE PHOSPHATASE: 349.67 u/L
  ASPARTATE AMINOTRANSFERASE: 93.67 u/L
  BLOOD UREA NITROGEN: 15.67 mg/dL
  CARBON DIOXIDE: 22 mmol/L
  CHLORIDE: 103.33 MEQ/L
  CHOLESTEROL: 61 mg/dL
  CREATINE PHOSPHOKINASE: 665.33 u/L
  CREATININE: 0.14 mg/dL
  GLUCOSE: 158.33 mg/dL
  LACTATE DEHYDROGENASE: 401 u/L
  LIPASE: 8.67 u/L
  PHOSPHORUS: 12.63 mg/dL
  POTASSIUM: 5.77 MEQ/L
  SODIUM: 144.43 MEQ/L
  TOTAL BILIRUBIN: 0.2 mg/dL
  TOTAL PROTEIN: 5.73 G/DL
  URIC ACID: 1.87 mg/dL
